Series [1] concerns Herpes simplex-1 strain KOS. In words: Inhibition of cytopathic effect of herpes simplex-1 virus strain KOS in PRK and HSF cell cultures (Test 1). Format: cell-based. The conditions noted are these: average of three experiments. On the technique in general: Damage to the host cells serves as the signal in cytopathic effect assays.
The subject of series [2] is herpes simplex virus. In words: Antiviral activity against herpes simplex virus in cell culture, overall statements. It is filed as cell-based. The conditions noted are these: in words.
In series [3] the test system is Herpes simplex-1 strain McIntyre. Briefly: Inhibition of cytopathic effect of herpes simplex-1 virus strain McIntyre in PRK cell cultures (Test 1). Format: cell-based. The conditions noted are these: PRK cells, average of three experiments, read-out: ID50, Herpes simplex-1 strain McIntyre (PRK).
Series [4] has as its system herpes simplex-1 (strain KOS) virus. The conditions noted are these: dose 10 μl/ml [sic].
A short description of series [5]: Antimetabolic activity in PRK cell cultures: (methyl-^3 H)TdR incorporation into cell DNA (Test 3). It is filed as cell-based. The conditions noted are these: rabbit, PRK cells, read-out: ID50, (Methyl-^3 H)TdR incorporation into cell DNA. The method, then:
(§1) To this end, the incorporation of certain radiolabelled DNA precursors into DNA of the cells, and the effect of 5-(2-halogenovinyl)-2'-deoxycytidines and related compounds thereon, was tested. The technique has been described by De Clercq et al in Biochemical Pharmacology, 26, 794-797 (1977) and by De Clercq et al in Molecular Pharmacology, 14, 422-430, (1978).
(§2) The DNA precursors as used were (methyl-^3 H), (2'-deoxythymidine ) (TdR), and (2-^14 C) (2'-deoxyuridine) (UdR).
(§3) The cells were exposed to 0.12 μCi:0.01 nmol (methyl-^3 H)TdR (per 10^5 cells) or 14 μCi/250 nmol (2-^14 C) UdR (per 10^5 cells) for 16 hours in the presence of varying concentrations of the compounds (ranging from 1 to 200 μg/ml). Incorporation of the radiolabelled precursor was then measured as described and the ID50 was determined. ID50 corresponds to the inhibitory dose-50, that is the concentration of compound required to inhibit incorporation of either (methyl-^3 H)TdR or (2-^14 C)UdR by 50%.

The test system of series [6] is cell culture. Briefly: Toxicity in cell culture, overall statements. Format: cell-based. The conditions noted are these: in words. The method, then:
as §3

Series [7] relates to Herpes simplex-1 strain F. Briefly: Inhibition of cytopathic effect of herpes simplex-1 virus strain F in PRK cell cultures (Test 1). It is filed as cell-based. The conditions noted are these: PRK cells, average of three experiments, read-out: ID50, Herpes simplex-1 strain F (PRK).
In another series the test system is vaccinia virus. In words: microbe, parasite or virus in culture. It is filed as cell-based. The conditions noted are these: Orthopoxvirus vaccinia.
A short description of series [8]: Antimetabolic activity in PRK cell cultures: (2-^14 C)UdR incorporation into cell DNA (Test 3). The conditions noted are these: rabbit, PRK cells, read-out: ID50, (2-^14 C)UdR incorporation into cell DNA. Format: cell-based. How it is done: as §1, §2, §3
The subject of series [9] is cell culture. The conditions noted are these: prior art literature; cited from earlier work.
Series [10] relates to (Methyl-^3 H)TdR incorporation into cell DNA, PRK cell cultures. The conditions noted are these: separate experiments reported by De Clercq et al., PNAS 76, 2947-2951 (1979); cited from earlier work.
Series [11] relates to herpes simplex-1 (strain KOS) virus. The conditions noted are these: separate experiments, De Clercq et al., PNAS 1979; cited from earlier work.
The test system of series [12] is (2-^14 C)UdR incorporation into cell DNA, PRK cell cultures. The conditions noted are these: separate experiments reported by De Clercq et al., PNAS 76, 2947-2951 (1979); cited from earlier work.
Series [13] relates to herpes simplex-1 (strain KOS) virus. Briefly: Antiviral index in PRK cell cultures (Test 4). It is filed as cell-based, herpes simplex-1 virus. The conditions noted are these: ratio of ID50 for (2-^14 C)UdR incorporation to ID50 for herpes simplex-1 (strain KOS), PRK cells. The method, then: The antiviral index was determined as the ratio of ID50 for (2-^14 C)UdR incorporation into cell DNA to ID50 for herpes simplex-1 (strain KOS) virus replication (compare Tables 1 and 3).

The test system of series [14] is herpes simplex virus. The conditions noted are these: De Clercq et al., PNAS 76, 2947-2951 (1979); cited from earlier work.
The mark [15] stands for this setting: HSF cells, read-out: ID50, Herpes simplex-1 strain KOS (HSF).
The mark [16] stands for this setting: PRK cells, read-out: ID50, Herpes simplex-1 strain KOS (PRK).
Setting [17] is: HSF, read-out: ID50, Vaccinia (HSF).
The mark [18] stands for this setting: PRK, read-out: ID50, Vaccinia (PRK).

Converted amounts (≈) assume the structure as drawn. “Also recorded” adds a separate entry of the source. Where two headings read alike, the source gives them in different places.

As to `Nc1nc(=O)n([C@H]2C[C@H](O)[C@@H](CO)O2)cc1/C=C/I` [E-5-(2-iodovinyl)-2'-deoxycytidine], the IC50 in [1] (setting [15]) was 0.07 µg/mL (≈ 0.185 µM); in [1] (setting [16]), 0.1 µg/mL (≈ 0.264 µM); in series [3], 0.07 µg/mL (≈ 0.185 µM); in series [7], 0.2 µg/mL (≈ 0.527 µM); with vaccinia virus (setting [17]), 7 µg/mL (≈ 18.5 µM); in the series on vaccinia virus (setting [18]) it was 10 µg/mL (≈ 26.4 µM). For the same compound, the “specific antiviral activity against herpes simplex virus” value with herpes simplex virus [2] is “excellent and highly specific antiviral activity against herpes simplex virus; also recorded: very specific towards herpes simplex virus”. The figures for the “Reduction in virus yield as compared to control (untreated virus-infected) cell cultures” value (“Reduction in virus yield” for short) in [4] (1 day after infection), in [4] (2 days after infection) and in series [4] (3 days after infection) were 4.3 log10 PFU/ml, 2.8 log10 PFU/ml and 2.0 log10 PFU/ml, respectively. The IC50 at 16 h in series [5] and in [8] was greater than 200 µg/mL each time. Also, in the series with cell culture [6], the “toxicity in cell culture” value was “apparently nil; also recorded: apparent lack of toxicity in cell culture”.
As for `O=c1[nH]c(=O)n([C@H]2C[C@H](O)[C@@H](CO)O2)cc1I` [5-iodo-2'-deoxyuridine], the “toxicity in cell culture, reported” value in the series on cell culture [9] is “cannot be neglected”. The IC50 was 0.2 µg/mL (≈ 0.565 µM) in series [1] (setting [15]); 0.1 µg/mL (≈ 0.282 µM) in series [1] (setting [16]); 0.15 µg/mL (≈ 0.424 µM) in series [3]; 0.2 µg/mL (≈ 0.565 µM) in series [7]; 0.2 µg/mL (≈ 0.565 µM) in the series with vaccinia virus (setting [17]); 0.02 µg/mL (≈ 0.0565 µM) in the series on vaccinia virus (setting [18]). For the same compound, the “ID50, (Methyl-^3 H)TdR incorporation into cell DNA (data in parentheses)” value in series [10] is 2.5 µg/mL (≈ 7.06 µM). Further, the “Reduction in virus yield” value in series [4] (1 day after infection) was found to be 4.0 log10 PFU/ml; in series [4] (2 days after infection), 2.6 log10 PFU/ml; in series [4] (3 days after infection) it was 1.9 log10 PFU/ml. Moreover, the “Antiviral index (numbers in parentheses)” value in series [11] was 12. Besides, the “ID50, (2-^14 C)UdR incorporation into cell DNA (data in parentheses)” value in [12] is 1.2 µg/mL (≈ 3.39 µM).
In the case of `Nc1nc(=O)n([C@H]2C[C@H](O)[C@@H](CO)O2)cc1/C=C/Br` [E-5-(2-bromovinyl)-2'-deoxycytidine], the IC50 in [1] (setting [15]) stood at 0.07 µg/mL (≈ 0.211 µM); in series [1] (setting [16]), 0.07 µg/mL (≈ 0.211 µM); in series [3], 0.07 µg/mL (≈ 0.211 µM); in series [7], 0.1 µg/mL (≈ 0.301 µM); in the series on vaccinia virus (setting [17]), 2 µg/mL (≈ 6.02 µM); with vaccinia virus (setting [18]) it was 10 µg/mL (≈ 30.1 µM). The “specific antiviral activity against herpes simplex virus” value with herpes simplex virus [2] is “excellent and highly specific antiviral activity against herpes simplex virus; also recorded: very specific towards herpes simplex virus”. The entries for the “Reduction in virus yield” value in series [4] (1 day after infection), in series [4] (2 days after infection) and in series [4] (3 days after infection) were 3.8 log10 PFU/ml, 2.9 log10 PFU/ml and 2.2 log10 PFU/ml, respectively. In addition, the IC50 at 16 h in [5] and in [8] was greater than 200 µg/mL each time. Moreover, the “toxicity in cell culture” value with cell culture [6] was “apparently nil; also recorded: apparent lack of toxicity in cell culture”.
In the case of `O=c1[nH]c(=O)n([C@H]2C[C@H](O)[C@@H](CO)O2)cc1/C=C/Br` [E-5-(2-bromovinyl)-2'-deoxyuridine], the “toxicity in cell culture, reported” value in the series with cell culture [9] is listed as “low toxicity in cell culture”. Moreover, the IC50 stood at 0.01 µg/mL (≈ 0.03 µM) in series [1] (setting [15]); 0.007 µg/mL (≈ 0.021 µM) in [1] (setting [16]); 0.01 µg/mL (≈ 0.03 µM) in [3]; 0.01 µg/mL (≈ 0.03 µM) in series [7]; 0.7 µg/mL (≈ 2.1 µM) with vaccinia virus (setting [17]); 7 µg/mL (≈ 21 µM) in the series with vaccinia virus (setting [18]). Also, in [10], the “ID50, (Methyl-^3 H)TdR incorporation into cell DNA (data in parentheses)” value is 70 µg/mL (≈ 210 µM). Besides, in series [11], the “Antiviral index (numbers in parentheses)” value is given as 10000. In addition, the IC50 at 16 h in series [5] and in series [8] was 100 µg/mL (≈ 300 µM) in each case. The Antiviral index in series [13] is given as 14300. In [12], the “ID50, (2-^14 C)UdR incorporation into cell DNA (data in parentheses)” value was 70 µg/mL (≈ 210 µM). Also, in the series on herpes simplex virus [14], the “antiviral activity against herpes simplex virus, reported” value is “specific antiviral activity against herpes simplex virus”.
For the compound `O=c1[nH]c(=O)n([C@H]2C[C@H](O)[C@@H](CO)O2)cc1/C=C/I` [E-5-(2-iodovinyl)-2'-deoxyuridine], in the series with cell culture [9], the “toxicity in cell culture, reported” value is reported as “low toxicity in cell culture”. For the same compound, the IC50 was 0.02 µg/mL (≈ 0.0526 µM) in series [1] (setting [15]); 0.01 µg/mL (≈ 0.0263 µM) in [1] (setting [16]); 0.01 µg/mL (≈ 0.0263 µM) in series [3]; 0.01 µg/mL (≈ 0.0263 µM) in series [7]; 1 µg/mL (≈ 2.63 µM) with vaccinia virus (setting [17]); 10 µg/mL (≈ 26.3 µM) in the series with vaccinia virus (setting [18]). The “ID50, (Methyl-^3 H)TdR incorporation into cell DNA (data in parentheses)” value in [10] is 70 µg/mL (≈ 184 µM). The “Antiviral index (numbers in parentheses)” value in [11] is given as 7000. In addition, the IC50 at 16 h in [5] stood at 80 µg/mL (≈ 210 µM); in [8], 150 µg/mL (≈ 395 µM). The Antiviral index in [13] is recorded as 15000. Also, the “ID50, (2-^14 C)UdR incorporation into cell DNA (data in parentheses)” value in [12] is 70 µg/mL (≈ 184 µM). Besides, the “antiviral activity against herpes simplex virus, reported” value in the series with herpes simplex virus [14] is given as “specific antiviral activity against herpes simplex virus”.
